As usually defined, the IC50 is the midpoint of a concentration-inhibition curve.

In the experiment the test system is naïve human CD8 T cells. Nature of the experiment: Human CD8 T cells pERK Assay. It counts as cell-based. The conditions noted are these: T-cell, read-out: HuCD8 pERK IC50. On the procedure:
Frozen naïve human CD8 T cells were thawed in AIM-V media, incubated for 2 h in 37° C., and counted. The CD8 positive T cells were added to 384-well tissue culture plate at 20,000 cells per well in AIM-V media. One compound was added to each well, then bead bound anti-human CD3 and anti-CD28 mAb were added at final concentration of 0.3 μg/mL. The cells were incubated at 37° C. for 10 minutes. The reaction was stopped by adding lysis buffer from the AlphaLISA Surefire kit. (Perkin Elmer, cat #ALSU-PERK-A). Lysate (5 μL per well) was transferred into a new 384-well white assay plate for pERK activation measurement.

For the molecule `COc1cc(F)ccc1C(c1ccc(F)cc1)N1CCN(c2c([N+](=O)[O-])c(=O)n(C)c3ccc(C#N)nc23)CC1` (single isomer, unassigned) [Example 124, 8-(4-((4-fluoro-2-methoxyphenyl)(4-fluorophenyl)methyl)piperazin-1-yl)-5-methyl-7-nitro-6-oxo-5,6-dihydro-1,5-naphthyridine-2-carbonitrile], the IC50 amounted to 0.36 µM.

Consider `C#CCn1c(=O)c([N+](=O)[O-])c(N2CCN(C(c3ccc(F)cc3)C3CC3)CC2)c2nc(C#N)ccc21` (single isomer, unassigned) [Example 143, 8-(4-(cyclopropyl(4-fluorophenyl)methyl)piperazin-1-yl)-7-nitro-6-oxo-5-(prop-2-yn-1-yl)-5,6-dihydro-1,5-naphthyridine-2-carbonitrile], for which the IC50 was 0.06 µM.

The values above are taken from patent US11866430B2, “Naphthyridinone compounds useful as T cell activators” (priority 2018, dated 2024).
